Measurements published in ChEMBL document CHEMBL3259721, “Base substituted 5'-O-(N-isoleucyl)sulfamoyl nucleoside analogues as potential antibacterial agents” (Bioorg Med Chem, 2014).
Active and inactive are the calls of the source. The calls are words filed in the database; no cut-off is given here. Peptide text beside a SMILES is read from it. * marks the point of attachment. X6 = CC[C@H](C)[C@H](N*)C(=O)NS(=O)(=O)OC[C@H]1O[C@@H](n2cnc3c([N+](=O)[O-])cccc32)[C@H](O)[C@@H]1O; X7 = CC[C@H](C)[C@H](N*)C(=O)NS(=O)(=O)OC[C@H]1O[C@@H](n2cnc3c(=O)[nH]c(N)nc32)[C@H](O)[C@@H]1O; X3 = CC[C@H](C)[C@H](N*)C(=O)NS(=O)(=O)OC[C@H]1O[C@@H](n2ccc(=O)[nH]c2=O)[C@H](O)[C@@H]1O; X1 = CC[C@H](C)[C@H](N*)C(=O)NS(=O)(=O)OC[C@H]1O[C@@H](n2cnc3c(N)cccc32)[C@H](O)[C@@H]1O; X2 = CC[C@H](C)[C@H](N*)C(=O)NS(=O)(=O)OC[C@H]1O[C@@H](n2cnc3c(N)ncnc32)[C@H](O)[C@@H]1O; X4 = CC[C@H](C)[C@H](N*)C(=O)NS(=O)(=O)OC[C@H]1O[C@@H](n2cnc3c(O)ncnc32)[C@H](O)[C@@H]1O; X5 = CC[C@H](C)[C@H](N*)C(=O)NS(=O)(=O)OC[C@H]1O[C@@H](n2ccc(N)nc2=O)[C@H](O)[C@@H]1O; For = O=C*

Assays:
[1] = biological target: Isoleucine--tRNA ligase (Escherichia coli K-12) (UniProt P00956); experiment: Inhibition of Isoleucine-tRNA synthetase in wild type Escherichia coli S30 cell extract assessed as inhibition of [C14]isoleucine incorporation in tRNA under in vitro aminoacylation conditions at 3.13 uM by liquid scintillation counting
[2] = test system: Escherichia coli; experiment: Antibacterial activity against wild type Escherichia coli assessed as growth inhibition in Luria broth at 5 mM after 8 to 18 hrs by disc diffusion method; type: functional, organism-based
[3] = test system: Escherichia coli; experiment: Antibacterial activity against wild type Escherichia coli Ara-Yej (BW39758) assessed as growth inhibition in Luria broth at 10 to 60 uM after 8 hrs by broth dilution test; type: functional, organism-based
[4] = test system: Escherichia coli; experiment: Antibacterial activity against wild type Escherichia coli assessed as growth inhibition in Luria broth at 5 mM after 8 to 18 hrs by broth dilution test; type: functional, organism-based

Chain of Isoleucine--tRNA ligase (Escherichia coli K-12) (P00956 whole entry, the tested form may be a part): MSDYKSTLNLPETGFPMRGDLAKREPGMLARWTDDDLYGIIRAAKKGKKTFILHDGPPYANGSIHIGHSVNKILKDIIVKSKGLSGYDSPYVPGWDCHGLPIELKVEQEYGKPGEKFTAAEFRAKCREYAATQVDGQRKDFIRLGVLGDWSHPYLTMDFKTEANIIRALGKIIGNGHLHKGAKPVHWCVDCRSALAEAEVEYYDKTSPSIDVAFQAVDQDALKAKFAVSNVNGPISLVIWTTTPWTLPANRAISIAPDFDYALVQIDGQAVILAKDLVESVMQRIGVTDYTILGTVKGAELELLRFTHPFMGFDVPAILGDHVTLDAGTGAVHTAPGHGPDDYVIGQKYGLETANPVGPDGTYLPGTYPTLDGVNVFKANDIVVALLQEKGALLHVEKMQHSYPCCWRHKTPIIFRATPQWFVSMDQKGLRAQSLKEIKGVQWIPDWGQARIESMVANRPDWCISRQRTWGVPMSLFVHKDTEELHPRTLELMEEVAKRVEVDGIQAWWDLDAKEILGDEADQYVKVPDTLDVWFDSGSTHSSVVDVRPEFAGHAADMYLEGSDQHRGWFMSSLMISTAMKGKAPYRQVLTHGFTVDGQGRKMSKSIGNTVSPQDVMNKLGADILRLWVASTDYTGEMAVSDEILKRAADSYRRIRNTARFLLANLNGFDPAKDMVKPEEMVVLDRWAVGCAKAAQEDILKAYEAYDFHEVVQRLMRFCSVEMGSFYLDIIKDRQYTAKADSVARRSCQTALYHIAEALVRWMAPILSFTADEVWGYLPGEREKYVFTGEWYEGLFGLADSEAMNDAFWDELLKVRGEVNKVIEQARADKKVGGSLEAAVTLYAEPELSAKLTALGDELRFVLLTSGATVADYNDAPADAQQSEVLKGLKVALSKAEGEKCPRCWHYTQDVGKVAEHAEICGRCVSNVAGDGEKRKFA

SMILES: CC[C@H](C)[C@H](N)C(=O)NS(=O)(=O)OC[C@H]1O[C@@H](n2cnc3c([N+](=O)[O-])cccc32)[C@H](O)[C@@H]1O
- inhibition [1]: Active
- growth inhibition (GI) [2]: inactive

SMILES: CC[C@H](C)[C@H](NC(=O)[C@H](C)NC(=O)[C@H](CC(N)=O)NC(=O)CNC(=O)[C@@H](NC(=O)[C@H](CCCNC(=N)N)NC(=O)[C@H](CCSC)NC=O)[C@@H](C)O)C(=O)NS(=O)(=O)OC[C@H]1O[C@@H](n2cnc3c(N)ncnc32)[C@H](O)[C@@H]1O (For-MRTGNA-X2)
- growth inhibition (GI) [3]: Active
- growth inhibition (GI) [4]: inactive

SMILES: CC[C@H](C)[C@H](NC(=O)[C@H](C)NC(=O)[C@H](CC(N)=O)NC(=O)CNC(=O)[C@@H](NC(=O)[C@H](CCCNC(=N)N)NC(=O)[C@H](CCSC)NC=O)[C@@H](C)O)C(=O)NS(=O)(=O)OC[C@H]1O[C@@H](n2cnc3c(O)ncnc32)[C@H](O)[C@@H]1O (For-MRTGNA-X4)
- growth inhibition (GI) [3]: Active
- growth inhibition (GI) [4]: inactive

SMILES: CC[C@H](C)[C@H](N)C(=O)NS(=O)(=O)OC[C@H]1O[C@@H](n2cnc3c(N)cccc32)[C@H](O)[C@@H]1O
- inhibition [1]: Active
- growth inhibition (GI) [2]: inactive

SMILES: CC[C@H](C)[C@H](N)C(=O)NS(=O)(=O)OC[C@H]1O[C@@H](n2cnc3c(=O)[nH]c(N)nc32)[C@H](O)[C@@H]1O
- inhibition [1]: Active
- growth inhibition (GI) [2]: inactive

SMILES: CC[C@H](C)[C@H](NC(=O)[C@H](C)NC(=O)[C@H](CC(N)=O)NC(=O)CNC(=O)[C@@H](NC(=O)[C@H](CCCNC(=N)N)NC(=O)[C@H](CCSC)NC=O)[C@@H](C)O)C(=O)NS(=O)(=O)OC[C@H]1O[C@@H](n2ccc(N)nc2=O)[C@H](O)[C@@H]1O (For-MRTGNA-X5)
- growth inhibition (GI) [4]: inactive

SMILES: CC[C@H](C)[C@H](NC(=O)[C@H](C)NC(=O)[C@H](CC(N)=O)NC(=O)CNC(=O)[C@@H](NC(=O)[C@H](CCCNC(=N)N)NC(=O)[C@H](CCSC)NC=O)[C@@H](C)O)C(=O)NS(=O)(=O)OC[C@H]1O[C@@H](n2cnc3c(=O)[nH]c(N)nc32)[C@H](O)[C@@H]1O (For-MRTGNA-X7)
- growth inhibition (GI) [4]: inactive

SMILES: CC[C@H](C)[C@H](NC(=O)[C@H](C)NC(=O)[C@H](CC(N)=O)NC(=O)CNC(=O)[C@@H](NC(=O)[C@H](CCCNC(=N)N)NC(=O)[C@H](CCSC)NC=O)[C@@H](C)O)C(=O)NS(=O)(=O)OC[C@H]1O[C@@H](n2cnc3c(N)cccc32)[C@H](O)[C@@H]1O (For-MRTGNA-X1)
- growth inhibition (GI) [3]: Active
- growth inhibition (GI) [4]: inactive

SMILES: CC[C@H](C)[C@H](NC(=O)[C@H](C)NC(=O)[C@H](CC(N)=O)NC(=O)CNC(=O)[C@@H](NC(=O)[C@H](CCCNC(=N)N)NC(=O)[C@H](CCSC)NC=O)[C@@H](C)O)C(=O)NS(=O)(=O)OC[C@H]1O[C@@H](n2ccc(=O)[nH]c2=O)[C@H](O)[C@@H]1O (For-MRTGNA-X3)
- growth inhibition (GI) [3]: inactive
- growth inhibition (GI) [4]: inactive

SMILES: CC[C@H](C)[C@H](N)C(=O)NS(=O)(=O)OC[C@H]1O[C@@H](n2cnc3c(O)ncnc32)[C@H](O)[C@@H]1O
- inhibition [1]: Active
- growth inhibition (GI) [2]: inactive

SMILES: CC[C@H](C)[C@H](N)C(=O)NS(=O)(=O)OC[C@H]1O[C@@H](n2ccc(=O)[nH]c2=O)[C@H](O)[C@@H]1O
- inhibition [1]: Active
- growth inhibition (GI) [2]: inactive

SMILES: CC[C@H](C)[C@H](N)C(=O)NS(=O)(=O)OC[C@H]1O[C@@H](n2ccc(N)nc2=O)[C@H](O)[C@@H]1O
- inhibition [1]: Active
- growth inhibition (GI) [2]: inactive

SMILES: CC[C@H](C)[C@H](NC(=O)[C@H](C)NC(=O)[C@H](CC(N)=O)NC(=O)CNC(=O)[C@@H](NC(=O)[C@H](CCCNC(=N)N)NC(=O)[C@H](CCSC)NC=O)[C@@H](C)O)C(=O)NS(=O)(=O)OC[C@H]1O[C@@H](n2cnc3c([N+](=O)[O-])cccc32)[C@H](O)[C@@H]1O (For-MRTGNA-X6)
- growth inhibition (GI) [4]: inactive

SMILES: CC[C@H](C)[C@H](N)C(=O)NS(=O)(=O)OC[C@H]1O[C@@H](n2cnc3c(N)ncnc32)[C@H](O)[C@@H]1O
- inhibition [1]: Active
- growth inhibition (GI) [2]: inactive
